Measurements reported in PubChem BioAssay (NCI).
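Grown in 96-well plates, cells were treated for 48 hours with each compound at five concentrations. Insufficient inhibition: endpoint recorded as highest concentration tested. The concentration for full growth arrest is given as TGI.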

Columns and labels:
Assay in all cases: NCI tumour cell line growth inhibition, 48 h
786-0 renal = test system: 786-0 renal
A498 renal = test system: A498 renal
A549 NSCLC = test system: A549 NSCLC
ACHN renal = test system: ACHN renal
CAKI-1 renal = test system: CAKI-1 renal
CCRF-CEM leukemia = test system: CCRF-CEM leukemia
COLO 205 colon = test system: COLO 205 colon
DLD-1 colon = test system: DLD-1 colon
DMS 114 small cell lung = test system: DMS 114 small cell lung
DMS 273 small cell lung = test system: DMS 273 small cell lung
EKVX NSCLC = test system: EKVX NSCLC
HCT-116 colon = test system: HCT-116 colon
HCT-15 colon = test system: HCT-15 colon
HL-60(TB) leukemia = test system: HL-60(TB) leukemia
HOP-18 NSCLC = test system: HOP-18 NSCLC
HOP-62 NSCLC = test system: HOP-62 NSCLC
HOP-92 NSCLC = test system: HOP-92 NSCLC
HT29 colon = test system: HT29 colon
IGROV1 ovarian = test system: IGROV1 ovarian
K-562 leukemia = test system: K-562 leukemia
KM12 colon = test system: KM12 colon
KM20L2 colon = test system: KM20L2 colon
LOX IMVI melanoma = test system: LOX IMVI melanoma
LXFL 529 NSCLC = test system: LXFL 529 NSCLC
M14 melanoma = test system: M14 melanoma
M19-MEL melanoma = test system: M19-MEL melanoma
MALME-3M melanoma = test system: MALME-3M melanoma
MOLT-4 leukemia = test system: MOLT-4 leukemia
NCI-H226 lung = test system: NCI-H226 lung
NCI-H23 lung = test system: NCI-H23 lung
NCI-H460 lung = test system: NCI-H460 lung
NCI-H522 lung = test system: NCI-H522 lung
OVCAR-3 ovarian = test system: OVCAR-3 ovarian
OVCAR-4 ovarian = test system: OVCAR-4 ovarian
OVCAR-5 ovarian = test system: OVCAR-5 ovarian
OVCAR-8 ovarian = test system: OVCAR-8 ovarian
RPMI-8226 leukemia = test system: RPMI-8226 leukemia
RXF 393 renal = test system: RXF 393 renal
RXF-631 renal = test system: RXF-631 renal
SF-268 CNS = test system: SF-268 CNS
SF-295 CNS = test system: SF-295 CNS
SF-539 CNS = test system: SF-539 CNS
SK-MEL-2 melanoma = test system: SK-MEL-2 melanoma
SK-MEL-28 melanoma = test system: SK-MEL-28 melanoma
SK-MEL-5 melanoma = test system: SK-MEL-5 melanoma
SK-OV-3 ovarian = test system: SK-OV-3 ovarian
SN12C renal = test system: SN12C renal
SNB-19 CNS = test system: SNB-19 CNS
SNB-75 CNS = test system: SNB-75 CNS
SNB-78 CNS = test system: SNB-78 CNS
SW-620 colon = test system: SW-620 colon
TK-10 renal = test system: TK-10 renal
U251 CNS = test system: U251 CNS
UACC-257 melanoma = test system: UACC-257 melanoma
UACC-62 melanoma = test system: UACC-62 melanoma
UO-31 renal = test system: UO-31 renal
XF 498 CNS = test system: XF 498 CNS

Measured: TGI

O=c1[nH]cc(COCCO)c(=O)[nH]1
> 100 µM: all assays above
